Measured values: US8883963B2 (Cadila Healthcare Limited, priority 2007, dated 2014)
Non-standard residues stand in square brackets, D forms with d. Residues, ends and D or L forms follow the SMILES beside them. ξ: configuration not given here. *: point of attachment. X8 = CCc1cc(OC)ccc1-c1ccc(CC(NC(=S)[C@H](CC(=O)O)N*)C(=S)NC(CCCc2ccccc2)C(N)=O)cc1; X4 = CCc1cc(OC)ccc1-c1ccc(CC(CNC(CCCc2ccccc2F)C(N)=O)N*)cc1; X7 = CCc1cc(OC)ccc1-c1ccc(CC(CNC(CCCc2ccccc2)C(N)=O)N*)cc1; ξαMePhe(2-F) = CC(N)(Cc1ccccc1F)C(=O)O; aThr = C[C@H](O)[C@H](N)C(=O)O; Aib = CC(C)(N)C(=O)O

What was measured:
Assay type in all cases: cell-based
[1] = test system: RIN5F (Rat Insulinoma) cells; test: In vitro glucose-dependent insulin secretion (RIN5F cell assay screening protocol); settings: 16.7 mM glucose load
Description: RIN5F (Rat Insulinoma) cells were cultured in RPMI 1640 medium supplemented with sodium pyruvate (1 mM) HEPES and Glucose (4.5 g/L) in a humidified incubator (5% CO2), at 37° C. After trypsinization, RIN5F cells were seeded at a concentration of 0.2×10^6 cells per well, in 12 well plates.
The buffer was replaced after 40 min. and the cells were incubated (37° C.) with the test peptidomimetics, at different concentration, for 30 min., both in the presence (16.7 mM) and absence (0 mM) of glucose load. The supernatant was collected and the insulin amount was measured by ultra sensitive Rat insulin ELISA kit (Crystal Chem, IL). The protein was estimated in the supernatant using Bicinchoninic Acid kit, according to the manufacturer's protocol (Sigma Aldrich, MO). The total insulin content obtained in Pico-gram (pg) was divided with the total protein (μg) in order to normalize for differences in cell density between wells.

Human GLP-1 receptor = biological target: T1, Human GLP-1 receptor (Homo sapiens, UniProt P43220); test: In vitro Human GLP-1 R agonist activity (cyclic AMP determination) in CHO/human GLP1R cells
T1 construct: The full-length cDNA was cloned in pcDNA3.1(+); expressed in transfected cells
T1 sequence (P43220 24-463): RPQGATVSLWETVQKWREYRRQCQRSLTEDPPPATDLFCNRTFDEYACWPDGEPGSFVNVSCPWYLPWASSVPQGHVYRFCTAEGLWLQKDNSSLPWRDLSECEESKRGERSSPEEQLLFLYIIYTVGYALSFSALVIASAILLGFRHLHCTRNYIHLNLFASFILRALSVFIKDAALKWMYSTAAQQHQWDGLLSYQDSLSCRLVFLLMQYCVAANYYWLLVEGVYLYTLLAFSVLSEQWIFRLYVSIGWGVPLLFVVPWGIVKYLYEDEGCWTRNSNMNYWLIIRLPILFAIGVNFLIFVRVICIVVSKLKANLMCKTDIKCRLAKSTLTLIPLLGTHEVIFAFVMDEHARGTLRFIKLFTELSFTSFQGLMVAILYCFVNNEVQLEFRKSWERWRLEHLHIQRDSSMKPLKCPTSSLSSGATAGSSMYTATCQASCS
Description: The novel peptidomimetics were screened for Human GLP-1 receptor (HGLP-1 R) agonist activity (in vitro), using the cAMP cell-based assay, in stably transfected CHO/human GLP1R cells. […] CHO cells were grown in Ham's F12 medium containing L-Glutamine (2 mM), HEPES (25 mM), NaHCO3 (1.1 g/L) and supplemented with NewBorn Calf Serum (NBCS; 10%), Penicillin (50 U/ml (v/v)) and Streptomycin (50 ug/ml (v/v)). Cells were split every 3 days 1:8.
The cDNA encoding the human GLP-1 receptor was isolated by RT-PCR according to standard protocol. The full-length cDNA was cloned in pcDNA3.1(+). […] Clones expressing the receptor were generated by G418 (800 μg/ml active, Sigma) selection. The stable clones were thereafter maintained at 500 ug/ml (G418). The selected clone was used between passages 9-25 for cAMP assays.
The trypsin was inactivated using Ham's F12 medium containing 10% NBCS and the cells were suspended in 2 ml of complete medium. […] The medium was aspirated off from the 12 well plate and the cells were washed once using Ham's F12 (plain). […] The cells were incubated with the test compounds for 30 min in humidified atmosphere and 37° C. After the incubation, the medium was removed and cells were washed once with plain Ham's F12. Subsequently, the cells were lysed by adding 500 ul of ice cold 0.1 N HCl to each well and shaking for 30 minutes at 200 rpm. The cells were then scrapped, the lysate was collected in micro centrifuge tubes and centrifuged at 12000 rpm for 10 min to remove the debris. 300 ul of supernatant from each micro-centrifuge tube was then removed into a glass tube and dried under N2 for 30 min, for cAMP estimation. The total cAMP was estimated from the sample according to the manufacturer's protocol using Cyclic AMP immunoassay kit (R&D systems, Minneapolis. MN). The remaining supernatant is used to determine the protein concentration using micro BCA (Sigma). Data is calculated as percent of control (Vehicle: water) and expressed as Mean±SD.

human glucagon receptor = biological target: T2, human glucagon receptor (Homo sapiens, UniProt P47871); test: In vitro human glucagon antagonist activity (inhibition of cAMP production) in CHO/human glucagon R cells; settings: with saturated concentration of glucagon peptide
T2 construct: The full-length cDNA was cloned in pcDNA3.1 (Invitrogen); expressed in transfected cells
T2 sequence (P47871 26-477): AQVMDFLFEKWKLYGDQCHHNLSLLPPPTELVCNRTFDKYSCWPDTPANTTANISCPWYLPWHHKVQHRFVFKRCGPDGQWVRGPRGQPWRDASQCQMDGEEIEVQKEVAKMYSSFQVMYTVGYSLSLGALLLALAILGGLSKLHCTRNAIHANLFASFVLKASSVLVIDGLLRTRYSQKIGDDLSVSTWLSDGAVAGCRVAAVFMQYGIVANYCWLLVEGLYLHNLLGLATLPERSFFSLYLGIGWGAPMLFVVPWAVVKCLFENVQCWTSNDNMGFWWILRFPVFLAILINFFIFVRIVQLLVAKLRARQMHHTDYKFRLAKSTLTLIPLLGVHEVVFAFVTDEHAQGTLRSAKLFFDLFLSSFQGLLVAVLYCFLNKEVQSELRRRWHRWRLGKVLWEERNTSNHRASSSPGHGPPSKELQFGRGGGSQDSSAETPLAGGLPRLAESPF
Description: The CHO-K1 cells (CRL 9618) were obtained from American Type Culture Collection (Rockville, Md.). CHO cells were grown in Ham's F12 medium containing L-Glutamine (2 mM), HEPES (25 mM), NaHCO3 (1.1 g/L) and supplemented with newborn Calf Serum (NBCS; 10%), Penicillin (50 U/ml (v/v)) and Streptomycin (50 ug/ml (v/v)). Cells were split every 3 days 1:8.
The full-length cDNA was cloned in pcDNA3.1 (Invitrogen). […] Clones expressing the receptor were generated by G418 (800 μg/ml active, Sigma) selection. The stable clones were thereafter maintained at 500 ug/ml (G418). The selected clone was used between passages 9-25 for cAMP assays.
The cells were trypsinized using 2 ml of TPVG (0.25% trypsin, 0.53 mM EDTA, 1.38-mM glucose). The trypsin was inactivated using Ham's F12 medium containing 10% NBCS and the cells were suspended in 2 ml of complete medium. […] The medium was aspirated off from the 12 well plate and the cells were washed once using Ham's F12 (plain). The cells were incubated at 37° C. with 500 ul of Ham's F12+1% BSA+0.125 mM RO-20 for 30 min. […] After the incubation, the medium was removed and cells were washed once with plain Ham's F12. Subsequently, the cells were lysed by adding 500 ul of ice cold 0.1 N HCl to each well and shaking for 30 minutes at 200 rpm. The cells were then scrapped, the lysate was collected in micro centrifuge tubes and centrifuged at 12000 rpm for 10 min to remove the debris. 300 ul of supernatant from each micro-centrifuge tube was then removed into a glass tube and dried under N2 for 30 min, for cAMP estimation. The total cAMP was estimated from the sample according to the manufacturer's protocol using Cyclic AMP immunoassay kit (R&D systems, Minneapolis. MN). The remaining supernatant is used to determine the protein concentration using micro BCA (Sigma). Data is calculated as percent of control (Vehicle: water) and expressed as Mean+SD.

SMILES	Insulin secretion ([1]; 0.1 nM test compd.) [pg/µg/h]	Insulin secretion ([1]; 1 nM test compd.) [pg/µg/h]	Insulin secretion ([1]; 10 nM test compd.) [pg/µg/h]	Human Glucagon receptor antagonistic activity shown as inhibition of cAMP production of Glucagon peptide (human glucagon receptor; 1 nM test compound) [pmol/ml/μg prt]	Human Glucagon receptor antagonistic activity shown as inhibition of cAMP production of Glucagon peptide (human glucagon receptor; 10 nM test compound) [pmol/ml/μg prt]	Human Glucagon receptor antagonistic activity shown as inhibition of cAMP production of Glucagon peptide (human glucagon receptor; 100 nM test compound) [pmol/ml/μg prt]	Human Glucagon receptor antagonistic activity shown as inhibition of cAMP production of Glucagon peptide (human glucagon receptor; 1 μM test compound) [pmol/ml/μg prt]	Human Glucagon receptor antagonistic activity shown as inhibition of cAMP production of Glucagon peptide (human glucagon receptor; 10 μM test compound) [pmol/ml/μg prt]	also measured
CCc1cc(OC)ccc1-c1ccc(CC(NC(=O)[C@H](CC(=O)O)NC(=O)[C@H](CO)NC(=O)[C@@H](NC(=O)C(C)(Cc2ccccc2F)NC(=O)[C@@H](NC(=O)CNC(=O)[C@H](CCC(N)=O)NC(=O)C(C)(C)NC(=O)[C@@H](N)Cc2c[nH]cn2)[C@@H](C)O)[C@@H](C)O)C(=O)NC(CCCc2cccc(Cl)c2)C(N)=O)cc1 (single isomer, unassigned) [compound 39]	11.1 ± 0.12	13.1 ± 0.13	19.0 ± 0.16	–	–	–	–	–	–
CCc1cc(OC)ccc1-c1ccc(CC(NC(=O)[C@H](CC(=O)O)NC(=O)[C@H](CO)NC(=O)[C@@H](NC(=O)[C@H](Cc2ccccc2)NC(=O)[C@@H](NC(=O)CNC(=O)[C@H](CCC(N)=O)NC(=O)[C@H](CO)NC(=O)[C@@H](N)Cc2c[nH]cn2)[C@@H](C)O)[C@@H](C)O)C(=O)NC(CCCc2ccc(F)cc2C(F)(F)F)C(N)=O)cc1 (single isomer, unassigned) [compound 48]	12.9 ± 0.14	15.8 ± 0.13	29.9 ± 0.15	–	–	–	–	–	–
CCc1cc(OC)ccc1-c1ccc(CC(NC(=O)[C@H](CC(=O)O)NC(=O)[C@H](CO)NC(=O)[C@@H](NC(=O)C(C)(Cc2ccccc2F)NC(=O)[C@@H](NC(=O)CNC(=O)[C@H](CCC(N)=O)NC(=O)C(C)(C)NC(=O)[C@H](Cc2c[nH]cn2)NC(C)=O)[C@H](C)O)[C@H](C)O)C(=O)NC(CCCc2ccccc2)C(N)=O)cc1 (single isomer, unassigned) [compound 101]	12.4 ± 0.22	15.2 ± 0.32	29.6 ± 0.50	–	–	–	–	–	–
CCc1cc(OC)ccc1-c1ccc(CC(NC(=O)[C@H](CC(=O)O)NC(=O)[C@H](CO)NC(=O)[C@@H](NC(=O)C(C)(Cc2ccccc2F)NC(=O)[C@@H](NC(=O)CNC(=O)[C@H](CCC(N)=O)NC(=O)C(C)(C)NC(=O)[C@H](Cc2c[nH]cn2)NC(C)=O)[C@H](C)O)[C@H](C)O)C(=O)NC(CCCc2ccccc2F)C(N)=O)cc1 (single isomer, unassigned) [compound 103]	12.1 ± 0.51	14.1 ± 0.19	28.1 ± 0.29	–	–	–	–	–	–
CCc1cc(OC)ccc1-c1ccc(CC(CNC(CCCc2ccccc2F)C(N)=O)NC[C@H](CC(=O)O)NC(=O)[C@H](CO)NC(=O)[C@@H](NC(=O)C(C)(Cc2ccccc2F)NC(=O)[C@@H](NC(=O)CNC(=O)[C@H](CCC(N)=O)NC(=O)C(C)(C)NC(=O)[C@H](Cc2c[nH]cn2)NC(=O)OC)[C@@H](C)O)[C@@H](C)O)cc1 (single isomer, unassigned) [compound 196]	–	–	–	–	–	–	–	–	Human GLP-1 R activity (cAMP release), % activity with respect to control (Human GLP-1 receptor; 1 nM test compound): 39 ± 0.10%; Human GLP-1 R activity (cAMP release), % activity with respect to control (Human GLP-1 receptor; 10 nM test compound): 81 ± 0.08%; Human GLP-1 R activity (cAMP release), % activity with respect to control (Human GLP-1 receptor; 100 nM test compound): 89 ± 0.09%; Human GLP-1 R activity (cAMP release), % activity with respect to control (Human GLP-1 receptor; 1 μM test compound): 96 ± 0.11%; Human GLP-1 R activity (cAMP release), % activity with respect to control (Human GLP-1 receptor; 10 μM test compound): 99 ± 0.16%
CCc1cc(OC)ccc1-c1ccc(CC(NC(=O)[C@H](CC(=O)O)NC(=O)[C@H](CO)NC(=O)[C@@H](NC(=O)C(C)(Cc2ccccc2F)NC(=O)[C@@H](NC(=O)CNC(=O)[C@H](CC(C(F)(F)F)C(F)(F)F)NC(=O)C(C)(C)NC(=O)[C@@H](N)Cc2c[nH]cn2)[C@H](C)O)[C@H](C)O)C(=O)NC(CCCc2ccccc2)C(N)=O)cc1 (single isomer, unassigned) [compound 228]	–	–	–	–	–	–	–	–	Human GLP-1 R activity (cAMP release), % activity with respect to control (Human GLP-1 receptor; 1 nM test compound): 99 ± 0.11%; Human GLP-1 R activity (cAMP release), % activity with respect to control (Human GLP-1 receptor; 10 nM test compound): 99 ± 0.13%; Human GLP-1 R activity (cAMP release), % activity with respect to control (Human GLP-1 receptor; 100 nM test compound): 99 ± 0.16%; Human GLP-1 R activity (cAMP release), % activity with respect to control (Human GLP-1 receptor; 1 μM test compound): 99 ± 0.06%; Human GLP-1 R activity (cAMP release), % activity with respect to control (Human GLP-1 receptor; 10 μM test compound): 99 ± 0.10%
CCc1cc(OC)ccc1-c1ccc(CC(NC(=S)[C@H](CC(=O)O)NC(=O)[C@H](CO)NC(=O)[C@@H](NC(=O)C(C)(Cc2ccccc2F)NC(=O)[C@@H](NC(=O)CNC(=O)[C@H](CCC(N)=O)NC(=O)C(C)(C)NC(=O)[C@@H](N)Cc2c[nH]cn2)[C@H](C)O)[C@H](C)O)C(=S)NC(CCCc2ccccc2)C(N)=O)cc1 (stereo partly shown) [compound 177] (H-H[Aib]QG[aThr][ξαMePhe(2-F)][aThr]S-X8)	–	–	–	0	0	0	0	0	–
CCc1cc(OC)ccc1-c1ccc(CC(CNC(CCCc2ccccc2)C(N)=O)NC(=O)[C@H](CC(=O)O)NC(=O)[C@H](CO)NC(=O)[C@@H](NC(=O)C(C)(Cc2ccccc2F)NC(=O)[C@@H](NC(=O)CNC(=O)[C@H](CCC(N)=O)NC(=O)C(C)(C)NC(=O)[C@@H](N)Cc2c[nH]cn2)[C@H](C)O)[C@H](C)O)cc1 (stereo partly shown) [compound 189] (H-H[Aib]QG[aThr][ξαMePhe(2-F)][aThr]SD-X7)	–	–	–	3 ± 0.12	1 ± 0.12	0	0	0	–
CCc1cc(OC)ccc1-c1ccc(CC(CNC(CCCc2ccccc2F)C(N)=O)NC(=O)[C@H](CC(=O)O)NC(=O)[C@H](CO)NC(=O)[C@@H](NC(=O)C(C)(Cc2ccccc2F)NC(=O)[C@@H](NC(=O)CNC(=O)[C@H](CCC(N)=O)NC(=O)C(C)(C)NC(=O)[C@@H](N)Cc2c[nH]cn2)[C@H](C)O)[C@H](C)O)cc1 (stereo partly shown) [compound 191] (H-H[Aib]QG[aThr][ξαMePhe(2-F)][aThr]SD-X4)	–	–	–	4 ± 0.05	2 ± 0.13	2 ± 0.12	0	0	–
